Entries after “also recorded” stand apart in the source; their conditions may differ. Where two headings read alike, the source gives them in different places.
Columns and labels:
DSS-induced colitis = assay type: in vivo, mice; settings: for effect on UC-like colitis (overall statement): mouse IBD model, acute/chronic not specified
Experimental: (§1) In an acute model, mice were treated with or without nAChRα7 agonist drug for five days. DSS were then given for seven days. Clinical activity scores were assessed. In a chronic model, mice were given DSS for seven days followed by seven days water. These DSS-water cycles were repeated three more times continuously. […] At this point, nAChRα7 agonist was given in one set of mice and all mice were followed for eleven days. […] The arrow indicates the start (day 53) of nAChRα7 agonist treatment in the chronic model;
(§2) For CD-like mouse model, BALB/c mice were used for the induction of DSS colitis. For CD-like mouse model, BALB/c mice were used for the induction of TNBS-colitis. C57/B6 or BALB/c mice, 6-8 weeks old, were pretreated (daily peritoneal injection) for one week with either nicotine (a non-specific ligand of nAChRα7; 6 mg/kg) or a nAChRα7-specific agonist (PNU; 8.3 mg/kg). Controls were mice without the pre-treatments (a total of >10 mice in each treatment group). The mice were then induced to develop either CD-like colitis with TNBS (600 μg) or UC-like colitis with DSS (2.5%).

chronic DSS colitis = test: Chronic UC-like DSS colitis, therapeutic treatment; assay type: in vivo, mice; settings: four DSS-water cycles, treatment from day 53, followed eleven days
Experimental: as §1
Induction of chronic UC-like colitis was described in the legends of FIG. 6.

TNBS-induced colitis = assay type: in vivo, mice; settings: for effect on CD-like colitis (overall statement): mouse IBD model, acute/chronic not specified; for disease activity (DAI), acute TNBS-colitis: mouse, in vivo
Source text: C57BL/6. Mice were pretreated either with PBS (control), or nicotine, PNU (α7 agonist), or MLA drug by peritoneal injection once daily for five days. Mice were then induced to develop colitis for seven days with either TNBS (in 50% ethanol) or 50% ethanol alone as a control. Disease activity of all mice was monitored daily.
as §2

[1] = system: chronic TNBS-induced colitis; assay type: in vivo, mice
[2] = at the dose used in the preclinical studies
Source text: (§3) Other studies of these nAChRα7-specific drugs, including toxicity and pharmacokinetics, are being investigated.

[3] = system: DSS-induced colitis of nAChRα7 deficient mice; settings: mouse, in vivo
Experimental: (§4) Wild type (WT) nAChRα7 deficient (nAChRα7 knockout; α7KO) mice, both in C57B/6 background, were induced to develop colitis, either with DSS (A) or TNBS (B). […] N≧6 per group;
(§5) To exclude this possibility, nAChRα7 agonist and antagonist were tested on nAChRα7-knockout mice (nAChRα7-KO), in which development of chemically-induced colitis will not be affected by the agents if they are only specific to nAChRα7.

[4] = system: TNBS-induced colitis of nAChRα7 deficient mice; settings: mouse, in vivo
Experimental: as §4, §5

[5] = system: mouse behavior (immobility); settings: DSS-induced colitis mice, IP agonist
Experimental: Tests were carried out on mice forced to swim in a cylindrical container for six minutes. Mice were divided into four groups: (a) control; (b) mice receiving IP agonist; (c) mice induced with DSS; and (d) mice receiving IP agonist and induced with DSS (n=6 in each group). The total duration of immobility in a container with 13 cm of water at 25° C. was scored. Immobility was defined when the mouse stopped struggling and remained floating motionless in the water, making only those movements necessary to keep its head above water. Day 0 and Day 7 indicate the days of DSS treatment.
as §3

[6] = system: Gpx1/2-double knockout (DKO) mice ileocolitis; test: GPX 1/2 DKO colitis; assay type: in vivo; settings: administered once signs of colitis were evident
Experimental: Clinical activity scores were assessed.
Once signs of colitis were immediately evident, both nAChRα7 agonists and nAChRα7 antagonists were administered to Gpx1/2-DKO mice.

Ulcerative colitis (UC) = settings: human, in vivo; cited from earlier work
[7] = system: Immortalized (EBV-transformed) B lymphocytes of patients with UC, CD, and unaffected controls
[8] = treatment of established chronic colitis

SMILES | effect on UC-like colitis (overall statement) (DSS-induced colitis) | disease activity (DAI), acute DSS-colitis (DSS-induced colitis; mouse, in vivo) | disease activity (clinical activity score), chronic DSS colitis (chronic DSS colitis) | effect on CD-like colitis (overall statement) (TNBS-induced colitis) | disease activity (DAI), chronic TNBS-colitis [1, 8] | disease activity (DAI), acute TNBS-colitis (TNBS-induced colitis) | potency compared with nicotine in preventing DSS-induced UC-like colitis (DSS-induced colitis; mouse, in vivo) | adverse effect on mice [2] | appearance of major organs (heart, kidney, liver, small and large intestines, spleen) [2] | therapeutic effect on DSS-induced colitis in nAChRα7KO mice [3] | therapeutic effect on TNBS-induced colitis in nAChRα7KO mice [4] | immobility of DSS-mice in forced swim test [5] | colitis clinical activity score, GPX 1/2 DKO mice [6] | disease activity (DAI), chronic TNBS-colitis ([1]; mouse, in vivo) | clinical efficacy in UC (Ulcerative colitis (UC)) | anti-inflammatory cytokine IL-10 production [7] | cytokine/chemokine changes, agent by itself [7] | production of proinflammatory cytokine/chemokine IL-8 and MIP-1 [7]
COc1ccc(/C=C2\CCCN=C2c2cccnc2)c(OC)c1 [GTS-21, 3-(2,4-dimethoxybenzylidene) anabaseine] | highly effective therapeutics for UC-like colitis | similarly effect of preventing development; also recorded: preventing DSS-induced colitis | effectively reverse the disease course | worsened CD-like colitis | – | – | – | – | – | – | – | – | – | – | – | – | – | –
CCN1C[C@]2(COC(=O)c3ccccc3N3C(=O)C[C@H](C)C3=O)CC[C@H](OC)[C@@]34[C@@H]5C[C@H]6[C@H](OC)[C@@H]5[C@](O)(C[C@@H]6OC)[C@@](O)([C@@H](OC)[C@H]23)[C@@H]14 [MLA, methyllycaconitine] | has no effect on UC-like colitis | – | – | highly effective therapeutic agent for CD-like colitis | highly therapeutic effect; also recorded: effectively reverses the disease course | efficiently prevent; also recorded: preventing acute TNBS-colitis; also recorded: essentially disappeared; also recorded: effectively prevent | – | – | – | – | – | – | – | – | – | – | – | –
O=C(N[C@H]1CN2CCC1CC2)c1ccc(Cl)cc1 [PNU, N-[(3R)-1-azabicyclo[2.2.2]oct-3-yl]-4-chlorobenzamide] | highly effective therapeutics for UC-like colitis | prevents DSS-induced UC-like colitis; also recorded: preventing DSS-induced colitis; also recorded: essentially eliminated the inflammation; also recorded: effectively prevent | effectively reverse the disease course; also recorded: essentially eliminated the inflammation | worsened CD-like colitis | no significant effect | greatly worsens; also recorded: worsens the disease; also recorded: either no therapeutic benefit, even worsening disease activity | slightly more potent | no adverse effect | look normal by appearance | neither agonist (PNU) nor antagonist (MLA) was efficacious; also recorded: no effect at all | neither agonist (PNU) nor antagonist (MLA) was efficacious; also recorded: no effect at all | completely reversed the immobility | highly effective in treating colitis | – | – | – | – | –
CN1CCCC1c1cccnc1 (stereo not drawn) [nicotine] | – | prevents the development; also recorded: prevents DSS-induced UC-like colitis; also recorded: effective in preventing UC-like DSS-colitis | – | – | – | – | – | – | – | – | – | – | – | no significant effect | significant clinical efficacy | significant inhibition | insignificant cytokine/chemokine changes | significant production

— US20130197028A1, “nAChRalpha7 Agonists and nAChRalpha7 Antagonists for Treating Ulcerative Colitis (UC) and Crohn's Disease (CD)” (priority 2010, published 2013)
